Laboratory results from patent EP4744680A1, “TARGETED CHEMICAL DRUG AND PREPARATION METHOD THEREFOR, PHARMACEUTICAL COMPOSITION, AND USE OF TARGETED CHEMICAL DRUG” (Bai Yao Zhi Da (Beijing) Nanobio Technology Co., Ltd., priority 2023, dated 2025).

Experiments:
[1] = test system: N87 gastric cancer; test: In vivo antitumor efficacy in an N87 gastric cancer mouse model (drug of Example 5); set-up: species or system mouse (BALB/c nude); details: 0.12mg i.v. (tail vein) once every 5 days, 5 administrations
Protocol: • 1. Cell culture and preparation: Thaw cells and seed into the corresponding medium (RPMI-1640 basal medium + 10% FBS + 1% penicillin/streptomycin [P/S]).
• a) Discard the culture medium and gently rinse the cells with PBS twice. • b) Add an appropriate volume of 0.25% trypsin, digest in a 37 °C incubator for about 1-2 min until cells visibly round up; then add complete medium (RPMI-1640 + 10% FBS + 1% P/S) to neutralize the trypsin.Gently pipette to detach cells and subculture at the desired split ratio. • c) Split ratio: 1: 2-1: 4; the split ratio used in this experiment is 1: 3. • d) Passage frequency: Every 2-3 days, depending on seeding density and growth.
• a) Harvest cells in logarithmic growth phase (~80-90% confluence recommended); • b) After trypsinization, add complete medium to terminate digestion; collect the suspension into centrifuge tubes and centrifuge at 1, 000 rpm for 5 min; • c) Wash the cell pellet twice with pre-chilled PBS and centrifuge each time; • d) Resuspend the pellet in PBS or serum-free medium to a final concentration of 2 × 10^7 cells/mL.
• Injection site: Subcutaneous, right axillary-dorsal region. • Inoculum: 3 × 10^6 cells/mouse; 30 mice inoculated. • Injection volume: 0.1 mL. • Method: Tumor cell inoculation.
Thaw and expand N87 cells to the required quantity; adjust the cell concentration to 3 × 10^7 cells/mL with sterile PBS and keep on ice until use. Using a single-use sterile 1 mL syringe, draw 0.1 mL of the cell suspension and inject subcutaneously into the right axillary-dorsal region of each mouse. The day of inoculation is designated Day 0 (D0).
• a)lmmediately before injection, thoroughly disperse the tumor cell suspension by pipetting to prevent cell clumping, which can reduce viability; • b)Restrain the mouse by grasping the dorsal neck skin with the thumb and forefinger while holding the tail with the little finger; • c)Using a disposable 1 mL syringe, inject the suspension subcutaneously; advance the needle slightly deeper under the skin (approximately 1 cm) to minimize leakage of the suspension from the needle tract;
Tumor size is measured three times per week using a vernier caliper. The long diameter (a) and the short diameter (b) are recorded. Tumor volume is calculated as: V=0.5×a×b^2.
RTV is calculated as: RTV = Vt/V0, where V0 is the tumor volume at grouping and initial dosing (D0), and Vt is the tumor volume at each measurement time point.
IRTW (%) = (Wcontrol group−Wtreatment group)/Wcontrol group × 100, [formula] where W denotes tumor weight.IRTW%>60% is considered effective.

[2] = Body weight in the N87 study of the Example 5 drug; assay type: in vivo, mouse (BALB/c nude); details: 0.12mg i.v. (tail vein) once every 5 days, 5 administrations
Protocol: Body weight is measured three times per week.Data are recorded and changes analyzed.

[3] = test system: N87 human gastric carcinoma; test: Comparative in-vivo efficacy test in the N87 mouse gastric carcinoma model (drugs of Example 5 and Example 7); set-up: species or system mouse (BALB/c-nu)
Excerpt: • Species/strain: BALB/c nude (BALB/c-nu) • Age: 6-8 weeks • Sex: Male • Body weight: 17-19 g
1).Inoculation and grouping: For the N87 human gastric carcinoma model, male BALB/c-nu mice (17.0-19.0 g) were used.Under aseptic conditions, N87 tumor tissue was excised and cut into 2.0 mm × 2.0 mm × 2.0 mm tumor blocks, which were implanted subcutaneously into the left axillary dorsal region of each nude mouse. The day of implantation was designated as Day 0 (D0).When tumor volume reached approximately 250.0 mm^3 (D6), animals with poor tumor take were excluded, and the remaining animals were randomized into groups according to tumor volume; dosing commenced on the day of randomization. 2).Dosing regimen: Table 27
Tumor size is measured three times per week using a vernier caliper. The long diameter (a) and short diameter (b) are recorded. Tumor volume is calculated as: V=0.5×a×b^2
RTV = Vt /V0 , [formula] where V0 is the tumor volume at grouping/first dosing (D0) and Vt is the tumor volume at each measurement time point.

[4] = Body weight in the comparative N87 study; assay type: in vivo, mouse (BALB/c-nu); details: 0.12mg i.v. (tail vein) once weekly for 6 weeks
[5] = Body weight in the A549 study of the Example 3 drug; assay type: in vivo, mouse (BALB/c-nu)
Protocol: Body weight is measured twice per week.Data are recorded and changes analyzed.

[6] = test system: HepG2 liver cancer; test: In-vivo efficacy study in the HepG2 mouse liver cancer model (drug of Example 6); set-up: species or system mouse (BALB/cAnSlacNifdc-nu); details: for Tumor growth inhibition rate (TGI, %) at different days post-inoculation: 6 mg/kg (0.12 mg/mouse) i.v. (tail vein) once weekly
Excerpt: • Species/strain: BALB/cAnSlacNifdc-nu • Sex: Male • Body weight: 16-18 g
1).Inoculation and grouping: For the HepG2 mouse liver cancer model, male BALB/cAnSlacNifdc-nu nude mice, weighing 16.0-18.0 g, were used.Under aseptic conditions, HepG2 tumor tissue was excised and cut into 2.0mm×2.0mm×2.0mm tumor blocks, which were uniformly implanted subcutaneously into the left axillary dorsal region of nude mice. The day of implantation was designated as Day 0 (D0).When the tumor volume reached approximately 250.0 mm^3 (D7), animals were randomized by tumor volume into three groups: A (control group), B, and C (treatment groups), with 8 animals per group.On the day of randomization, all animals began intravenous (tail-vein) dosing once weekly for a total of 3 administrations. 2.Dosing regimen: Table 37
Tumor size is measured twice per week using a vernier caliper. The long diameter (a) and short diameter (b) are recorded. Tumor volume is calculated as: V=0.5×a×b^2.
RTV = Vt /V0 , [formula] where V0 is the tumor volume at grouping/first dosing (D0), and Vt is the tumor volume at each measurement time point.
6).Tumor weight: At the end of the study (D23), the remaining animals were euthanized by cervical dislocation. Tumors were excised, weighed, and photographed.

[7] = 41 days post-N87 inoculation, 0.12mg i.v. (tail vein) once weekly for 6 weeks

SMILES: COc1cccc2c1C(=O)c1c(O)c3c(c(O)c1C2=O)C[C@@](O)(C(=O)CO)C[C@@H]3O[C@H]1C[C@H](N)[C@@H](O)[C@H](C)O1 [Epirubicin drug substance (API), Epirubicin]
- Inhibition rate (%) at different post-inoculation days ([1]; Day 9): 17.5%
- Inhibition rate (%) at different post-inoculation days ([1]; Day 11): 3.5%
- Inhibition rate (%) at different post-inoculation days ([1]; Day 13): 10.2%
- Inhibition rate (%) at different post-inoculation days ([1]; Day 16): 24.1%
- Inhibition rate (%) at different post-inoculation days ([1]; Day 18): 32.9%
- Inhibition rate (%) at different post-inoculation days ([1]; Day 20): 36.4%
- Inhibition rate (%) at different post-inoculation days ([1]; Day 23): 34.6%
- Tumor weight ([1]; end of study): 0.1751 ± 0.13 g
- IRTW% ([1]; inhibition rate of tumor weight): 71.987%
- Body-weight difference (g) between Day 23 and Day 5 [2]: -3.84 g
- Tumor weight [3, 7]: 0.62 ± 0.55 g
- Tumor-weight inhibition rate, IRTW (%) [3, 7]: 51.74%
- Tumor growth inhibition rate (TGI, %) at different post-inoculation days ([3]; Day 10, 0.12mg i.v. (tail vein) once weekly for 6 weeks): 41.17%
- Tumor growth inhibition rate (TGI, %) at different post-inoculation days ([3]; Day 13, 0.12mg i.v. (tail vein) once weekly for 6 weeks): 34.62%
- Tumor growth inhibition rate (TGI, %) at different post-inoculation days ([3]; Day 17, 0.12mg i.v. (tail vein) once weekly for 6 weeks): 37.16%
- Tumor growth inhibition rate (TGI, %) at different post-inoculation days ([3]; Day 20, 0.12mg i.v. (tail vein) once weekly for 6 weeks): 35.17%
- Tumor growth inhibition rate (TGI, %) at different post-inoculation days ([3]; Day 24, 0.12mg i.v. (tail vein) once weekly for 6 weeks): 43.86%
- Tumor growth inhibition rate (TGI, %) at different post-inoculation days ([3]; Day 27, 0.12mg i.v. (tail vein) once weekly for 6 weeks): 43.86%
- Tumor growth inhibition rate (TGI, %) at different post-inoculation days ([3]; Day 31, 0.12mg i.v. (tail vein) once weekly for 6 weeks): 44.19%
- Tumor growth inhibition rate (TGI, %) at different post-inoculation days ([3]; Day 34, 0.12mg i.v. (tail vein) once weekly for 6 weeks): 42.97%
- Tumor growth inhibition rate (TGI, %) at different post-inoculation days ([3]; Day 38, 0.12mg i.v. (tail vein) once weekly for 6 weeks): 40.97%
- Tumor growth inhibition rate (TGI, %) at different post-inoculation days ([3]; Day 41, 0.12mg i.v. (tail vein) once weekly for 6 weeks): 51.83%
- tumor growth inhibition rate calculated from tumor weight and tumor volume ([3]; end of the study (D41), tail-vein injection): < 60%
- Body-weight difference (g) between Day 41 and Day 6 [4]: 3.29 g
- Body-weight difference (g) between Day 32 and Day 5 ([5]; 0.08mg i.v. (tail vein) twice weekly for 5 weeks): 6.3 g
- Body-weight difference (g) between Day 32 and Day 5 ([5]; 0.12mg i.v. (tail vein) twice weekly for 5 weeks): 6.1 g
- Body-weight difference (g) between Day 32 and Day 5 ([5]; 0.14mg i.v. (tail vein) twice weekly for 5 weeks): 0.2 g
- Tumor weight inhibition rate, IRTW (%) ([6]; 23 days post-HepG2 inoculation, 6 mg/kg (0.12 mg/mouse) i.v. once weekly, 3 administrations): 25.20%
- Tumor growth inhibition rate (TGI, %) at different days post-inoculation ([6]; Day 10, 3 administrations): 16.33%
- Tumor growth inhibition rate (TGI, %) at different days post-inoculation ([6]; Day 14, 3 administrations): 36.16%
- Tumor growth inhibition rate (TGI, %) at different days post-inoculation ([6]; Day 21, 3 administrations): 24.72%
- Tumor growth inhibition rate (TGI, %) at different days post-inoculation ([6]; Day 23, 3 administrations): 22.08%
- tumor growth inhibition rate (calculated based on tumor weight and tumor volume) ([6]; end of the study (D23), intravenous injection): less than 60%
